Where two headings read alike, the source gives them in different places.
What was measured:
[1] = target: mu opioid receptor (MOR) (Homo sapiens, UniProt P35372); test: Competitive radioligand binding assay, MOR; conditions: from Ki values
[2] = test system: Caco-2 cells; test: Bidirectional transport in Caco-2 cells; type: in vitro ADME; conditions: apical/basolateral, up to 2 h
[3] = test system: antinociception (tail flick) in mice; test: Warm-water tail flick test; type: in vivo; conditions: morphine 10 mg/kg, dose up to 30 mg/kg
[4] = test system: opioid-induced constipation in patients; conditions: cited from earlier work; for patients with laxation within 4 hours after the first dose: clinical trial, subcutaneous
[5] = test system: GI transit in morphine-pelleted mice; conditions: cited from earlier work
[6] = test system: Caco-2 cells; conditions: cited from earlier work
[7] = test system: GI transit in morphine naive mice; conditions: similar assay, similar dose (about 10 mg/kg); cited from earlier work
[8] = low due to significant hepatic first-pass; cited from earlier work

Chain of mu opioid receptor (MOR) (P35372 whole entry, species assumed): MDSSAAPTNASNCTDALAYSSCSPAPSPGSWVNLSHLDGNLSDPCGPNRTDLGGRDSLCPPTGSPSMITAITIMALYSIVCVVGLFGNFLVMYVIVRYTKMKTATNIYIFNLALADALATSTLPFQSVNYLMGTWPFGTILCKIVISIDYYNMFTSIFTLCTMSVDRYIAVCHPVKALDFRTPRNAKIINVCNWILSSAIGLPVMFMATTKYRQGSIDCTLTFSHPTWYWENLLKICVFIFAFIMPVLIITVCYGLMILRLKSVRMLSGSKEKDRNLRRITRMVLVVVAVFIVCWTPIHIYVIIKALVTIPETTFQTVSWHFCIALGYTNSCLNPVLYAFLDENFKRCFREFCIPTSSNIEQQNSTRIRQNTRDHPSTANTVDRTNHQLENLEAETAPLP

SMILES: O=C(N[C@@H]1CC[C@@]2(O)[C@H]3Cc4ccc(O)c5c4[C@@]2(CCN3CC2CC2)[C@H]1O5)c1ccnc(Cl)c1 [Compound 1, 17-Cyclopropylmethyl-3,14β-dihydroxy-4,5α-epoxy-6β-{[4′-(2′-chloropyridyl)]carboxamido}morphinan]
- MOR selectivity over DOR [1]: over 1000 fold

SMILES: Cc1cnccc1C(=O)N[C@@H]1CC[C@@]2(O)[C@H]3Cc4ccc(O)c5c4[C@@]2(CCN3CC2CC2)[C@H]1O5 [Compound 8, 17-Cyclopropylmethyl-3,14β-dihydroxy-4,5α-epoxy-6β-{[4′-(3′-methylpyridyl)]carboxamido}morphinan]
- apparent permeability / bidirectional transport [2]: low permeability

SMILES: O=C(CNC(=O)c1ccncc1)N[C@@H]1CC[C@@]2(O)[C@H]3Cc4ccc(O)c5c4[C@@]2(CCN3CC2CC2)[C@H]1O5 [Compound 12, 17-Cyclopropylmethyl-3,14β-dihydroxy-4,5α-epoxy-6β-{2′-[(pyridine-4′′-yl)carboxamido]acetamido}morphinan]
- antagonism of antinociceptive effect of morphine [3]: no apparent antagonism effect

SMILES: C[N@+]1(CC2CC2)CC[C@]23c4c5ccc(O)c4O[C@H]2C(=O)CC[C@@]3(O)[C@H]1C5 [MNTX, methylnaltrexone]
- efficiency to induce SBM [4]: ≤ 62%
- patients with laxation within 4 hours after the first dose ([4]; placebo 14%): 62%
- patients with laxation within 4 hours after the first dose ([4]; placebo 15%): 48%

SMILES: O=C(N[C@@H]1CC[C@@]2(O)[C@H]3Cc4ccc(O)c5c4[C@@]2(CCN3CC2CC2)[C@H]1O5)c1ccncc1 [NAP, 17-cyclopropylmethyl-3, 14β-dihydroxy-4,5α-epoxy-6β-[(4’ -pyridyl)carboxamido]morphinan]
- ED50 in the GI transit assay ([5]; GI transit assay): 8.8 µg/kg
- incidence of diarrhea ([5]; high doses): incidence of diarrhea associated with high doses
- apparent permeability [6]: significantly low
- effect of compound alone on intestinal motility [7]: intestinal motility decreased

SMILES: C=CCN1CC[C@]23c4c5ccc(O)c4O[C@H]2C(=O)CC[C@@]3(O)[C@H]1C5 [Naloxone]
- systemic bioavailability [8]: ~ 2%
